The record followed here is ChEMBL document CHEMBL3872245, “A novel curcumin derivative which inhibits P-glycoprotein, arrests cell cycle and induces apoptosis in multidrug resistance cells” (Bioorg Med Chem, 2017).

A short description of data set [1]: Antiproliferative activity against human NCI-H460 cells measured after 48 hrs by sulforhodamine B assay. Format: functional. As to conditions: NCI-H460, 48 h.
Data set [2] has as its system H460. Nature of the data set: Inhibition of P-gp in drug resistant human H460 cells assessed as reduction in cell viability measured after 48 hrs by sulforhodamine B assay. Format: cell-based.
The nature of data set [3]: Antiproliferative activity against human K562 cells measured after 48 hrs by Presto blue assay. Format: functional. As to conditions: K562, 48 h.
In data set [4] the test system is K562. Nature of the data set: Inhibition of P-gp in doxorubicin resistant human K562 cells assessed as reduction in cell viability measured after 48 hrs by Presto blue assay. Format: cell-based.
Data set [5] relates to K562. The experiment in a line: Inhibition of P-gp in doxorubicin resistant human K562 cells assessed as increase in accumulation of rhodamine 123 at 10 uM measured after 1 hr by flow cytometry. Format: cell-based.
In data set [6] the test system is K562. Nature of the data set: Inhibition of P-gp in doxorubicin resistant human K562 cells assessed as reduction in cell viability measured after 48 hrs by SRB assay. Format: cell-based.
A short description of data set [7]: Chemical stability of the compound in pH 6.7 potassium phosphate buffer at 10^-4 M incubated for overnight by HPLC method. Format: physicochemical. As to conditions: pH 6.7, 100 µM.
Data set [8] relates to K562. The experiment in a line: Induction of apoptosis in doxorubicin resistant human K562 cells decrease in pro-caspase 3 level at 20 to 40 uM measured after 48 hrs by Western blot method. Format: functional, cell-based.
Data set [9] is described as follows: Down regulation of p-gp expression in doxorubicin resistant human K562 cells at 20 to 30 uM measured after 48 hrs by Western blot method. Format: functional, cell-based.
The nature of data set [10]: Cell cycle arrest in doxorubicin resistant human K562 cells assessed as increase in G2/M phase at 20 uM measured after 48 hrs by propidium iodide staining based flow cytometry. Format: functional.
Data set [11] in a line: Cell cycle arrest in doxorubicin resistant human K562 cells assessed as decrease in G0/G1 phase at 20 uM measured after 48 hrs by propidium iodide staining based flow cytometry. Format: functional.
Data set [12] can be described thus: Cell cycle arrest in doxorubicin resistant human K562 cells assessed as decrease in S phase at 20 uM measured after 48 hrs by propidium iodide staining based flow cytometry. Format: functional.
Data set [13] in a line: Cell cycle arrest in doxorubicin resistant human K562 cells assessed as accumulation at G0/G1 phase at 30 to 40 uM measured after 48 hrs by propidium iodide staining based flow cytometry. Format: functional.
Data set [14] can be described thus: Cell cycle arrest in doxorubicin resistant human K562 cells assessed as decrease in G2/M phase at 30 to 40 uM measured after 48 hrs by propidium iodide staining based flow cytometry. Format: functional.
Data set [15] deals with K562. Nature of the data set: Induction of apoptosis in doxorubicin resistant human K562 cells at 20 uM by Annexin V-FITC/propidium iodide staining based flow cytometry. Format: functional.
For data set [16], the system named is K562. The experiment in a line: Induction of apoptosis in doxorubicin resistant human K562 cells at 30 uM by Annexin V-FITC/propidium iodide staining based flow cytometry. Format: functional.
Data set [17] deals with K562. The experiment in a line: Induction of apoptosis in doxorubicin resistant human K562 cells at 40 uM by Annexin V-FITC/propidium iodide staining based flow cytometry. Format: functional.
Data set [18] in a line: Up regulation of p53 expression in doxorubicin resistant human K562 cells at 20 to 40 uM measured after 48 hrs by Western blot method. Format: functional, cell-based.
Data set [19] in a line: Down regulation of cyclin B1 expression in doxorubicin resistant human K562 cells at 20 to 40 uM measured after 48 hrs by Western blot method. Format: functional, cell-based.
In data set [20] the test system is K562. Nature of the data set: Induction of apoptosis in doxorubicin resistant human K562 cells assessed as increase in PARP-1 cleavage at 20 to 40 uM measured after 48 hrs by Western blot method. Format: functional, cell-based.
Data set [21] in a line: Chemical stability of the compound in pH 9.1 sodium boric acid buffer at 10^-4 M incubated for overnight by HPLC method. Format: physicochemical. The following applies: pH 9.1, 100 µM.
Data set [22] can be described thus: Chemical stability of the compound in pH 5 sodium acetate buffer at 10^-4 M incubated for overnight by HPLC method. Format: physicochemical. As to conditions: pH 5, 100 µM.
Data set [23] is described as follows: Chemical stability of the compound in pH 7.4 phosphate buffered saline at 10^-4 M incubated for overnight by HPLC method. Format: physicochemical. The following applies: buffer, pH 7.4, 100 µM.
Data set [24] is described as follows: Chemical stability of the compound in pH 1 HCl buffer at 10^-4 M incubated for 75 mins by HPLC method. Format: physicochemical. The following applies: pH 1, 1.25 h, 100 µM.
Data set [25] can be described thus: Stability of the compound in RPMI medium at 1.5 10^-3 M incubated for 5 to 30 mins under dark condition by HPLC method. Format: physicochemical.
A short description of data set [26]: Stability of the compound at -20 degreeC at 10^-4 M incubated for 6 to 12 days under dark condition by HPLC method. As to conditions: 100 µM. Format: physicochemical.
The nature of data set [27]: Stability of the compound at 4 degreeC at 10^-4 M incubated for 6 to 12 days under dark condition by HPLC method. Format: physicochemical. The following applies: 100 µM.
Data set [28] is described as follows: Stability of the compound at room temperature at 10^-4 M incubated for 6 to 12 days under dark condition by HPLC method. Format: physicochemical. The following applies: 100 µM.
Data set [29] in a line: Stability of the compound in HEPES medium at 1.5 10^-3 M incubated for 5 to 30 mins under dark condition by HPLC method. Format: physicochemical.
Data set [30] relates to K562. The experiment in a line: Induction of apoptosis in doxorubicin resistant human K562 cells assessed as decrease in pro-caspase 3 level at 2.7 to 5.4 uM measured after 48 hrs by Western blot method. Format: functional, cell-based.
The nature of data set [31]: Down regulation of p-gp expression in doxorubicin resistant human K562 cells at 2.7 to 4.1 uM measured after 48 hrs by Western blot method. Format: functional, cell-based.
Data set [32] is described as follows: Cell cycle arrest in doxorubicin resistant human K562 cells assessed as increase in G2/M phase at 2.7 uM measured after 48 hrs by propidium iodide staining based flow cytometry. Format: functional.
Data set [33] in a line: Cell cycle arrest in doxorubicin resistant human K562 cells assessed as decrease in G0/G1 phase at 2.7 uM measured after 48 hrs by propidium iodide staining based flow cytometry. Format: functional.
Data set [34] can be described thus: Cell cycle arrest in doxorubicin resistant human K562 cells assessed as decrease in S phase at 2.7 uM measured after 48 hrs by propidium iodide staining based flow cytometry. Format: functional.
Data set [35] can be described thus: Cell cycle arrest in doxorubicin resistant human K562 cells assessed as accumulation at G2/M phase at 4.1 to 5.4 uM measured after 48 hrs by propidium iodide staining based flow cytometry. Format: functional.
Data set [36] relates to K562. Nature of the data set: Induction of apoptosis in doxorubicin resistant human K562 cells at 2.7 uM by Annexin V-FITC/propidium iodide staining based flow cytometry. Format: functional.
The subject of data set [37] is K562. The experiment in a line: Induction of apoptosis in doxorubicin resistant human K562 cells at 4.1 uM by Annexin V-FITC/propidium iodide staining based flow cytometry. Format: functional.
Data set [38] has as its system K562. Nature of the data set: Induction of apoptosis in doxorubicin resistant human K562 cells at 5.4 uM by Annexin V-FITC/propidium iodide staining based flow cytometry. Format: functional.
Data set [39] is described as follows: Up regulation of p53 expression in doxorubicin resistant human K562 cells at 2.7 to 5.4 uM measured after 48 hrs by Western blot method. Format: functional, cell-based.
Data set [40] in a line: Down regulation of cyclin B1 expression in doxorubicin resistant human K562 cells at 2.7 to 5.4 uM measured after 48 hrs by Western blot method. Format: functional, cell-based.
Data set [41] relates to K562. Nature of the data set: Induction of apoptosis in doxorubicin resistant human K562 cells assessed as increase in PARP-1 cleavage at 2.7 to 5.4 uM measured after 48 hrs by Western blot method. Format: functional, cell-based.

Calls of active or inactive are those of the source. No cut-off for these calls is given here. Some results are limits rather than exact numbers.

On to `C=CCOc1ccc(/C=C/C(C)=O)cc1OC`, for which the GI50 in data set [1] came out at 41.5 µM; in [2], 39.3 µM; in data set [3], 68.7 µM; in data set [4], 63.3 µM.

For `C#CCOc1ccc(/C=C/C(C)=O)cc1OC`, the GI50 in data set [1] was 52.7 µM; in data set [2] it was 41.7 µM; in data set [3], above 150 µM; in data set [4] it was 133 µM.

Turning to `COc1cc(/C=C/C(C)=O)ccc1OCc1cn(CCO[C@@H]2O[C@H](COC(C)=O)[C@H](OC(C)=O)[C@H](OC(C)=O)[C@H]2NC(C)=O)nn1`, the GI50 in data set [1], in data set [2], in data set [3] and in data set [4] was above 150 µM in each case.

For `COc1cc(/C=C/C(C)=O)ccc1OCCCNC(=O)OC(C)(C)C`, the GI50 in data set [1] was 55.2 µM; in data set [2], 41 µM; in data set [3], above 150 µM; in [4], above 150 µM. Further, the inhibition entry in data set [5] is “Active”.

For the compound `COc1cccc2c1C(=O)c1c(O)c3c(c(O)c1C2=O)C[C@@](O)(C(=O)CO)C[C@@H]3O[C@H]1C[C@H](N)[C@H](O)[C@H](C)O1` [DOXORUBICIN], the GI50 was 0.02 µM in data set [1]; above 0.15 µM in data set [2]; 0.065 µM in [3]; above 0.15 µM in data set [4]; 11.6 µM in data set [6].

In the case of `COc1cc(/C=C/C(=O)CC(=O)/C=C/c2ccc(O)c(OC)c2)ccc1O` [CURCUMIN], the Stability result in data set [7] was “Unstable”; in [21], “Unstable”; in [22], “Unstable”; in [23], “Unstable”; in [24] it was “Unstable”; in [25] it was “Stable”. The Stability entry in data set [26], in [27], in [28] and in data set [29] was “Stable” each time. The outcome in data set [8], in data set [9], in data set [10], in data set [11], in data set [12] and in [13] was Active. Also, the outcome in [14], in [18], in data set [19] and in data set [20] was Active. Moreover, the GI50 in data set [1] was 27.3 µM; in [2], 26 µM; in data set [3], 21.7 µM; in data set [4] it was 19.7 µM. The Activity amounted to 11.8% in data set [15], 26.9% in data set [16] and 32% in data set [17].

Consider `COc1cc(/C=C/C(C)=O)ccc1O` [DEHYDROZINGERONE], for which the Stability entry in [7], in data set [21], in [22], in data set [23], in data set [24] and in data set [25] was “Stable” throughout. Further, the Stability result in data set [26], in data set [27], in data set [28] and in [29] was “Stable” each time. In addition, the GI50 in data set [1] was determined as 64.8 µM; in [2] it was 62.7 µM; in data set [3] it was 85.3 µM; in [4] it was 92 µM.

`C#CCOc1ccc(/C=C/C(=O)CC(=O)/C=C/c2ccc(OCC#C)c(OC)c2)cc1OC`: the Stability entry in [7], in [21], in data set [22], in data set [23], in data set [24] and in data set [25] was “Stable” throughout. Further, the Stability entry in data set [26], in data set [27], in data set [28] and in data set [29] was “Stable” throughout. In addition, the result in data set [30], in data set [31], in [32], in data set [33], in data set [34] and in data set [35] was Active. Besides, the result in data set [39], in data set [40] and in data set [41] was Active. Moreover, the GI50 was 3.4 µM in [1], 2.6 µM in [2], 6.3 µM in data set [3] and 2.73 µM in data set [4]. Moreover, the inhibition entry in data set [5] is “Active”. For the same compound, the results for the Activity in data set [36], in [37] and in data set [38] were 9.3%, 11.3% and 14.8%, respectively.

As for `COC(=O)COc1ccc(/C=C/C(C)=O)cc1OC`, the GI50 in data set [1], in [2], in data set [3] and in data set [4] was above 150 µM throughout.

Take `COc1cc(/C=C/C(=O)CC(=O)/C=C/c2ccc(OCc3cn(CCO[C@@H]4O[C@H](COC(C)=O)[C@H](OC(C)=O)[C@H](OC(C)=O)[C@H]4NC(C)=O)nn3)c(OC)c2)ccc1OCc1cn(CCO[C@@H]2O[C@H](COC(C)=O)[C@H](OC(C)=O)[C@H](OC(C)=O)[C@H]2NC(C)=O)nn1`: the concentration for 50% growth inhibition (GI50) in [1], in data set [2], in [3] and in data set [4] was above 150 µM throughout.

Take `COc1cc(/C=C/C(=O)/C=C/c2ccc(O)c(OC)c2)ccc1O`: the Stability entry in [7], in [21], in [22], in data set [23], in [24] and in data set [25] was “Stable” each time. Further, the Stability result is reported as “Unstable” in [26], “Unstable” in data set [27], “Unstable” in [28] and “Stable” in [29]. In addition, the GI50 in data set [1] was found to be 1.47 µM; in data set [2], 1.8 µM; in [3], 9.33 µM; in data set [4], 20.7 µM.

As to `COc1ccc(CCN(C)CCCC(C#N)(c2ccc(OC)c(OC)c2)C(C)C)cc1OC` (stereo not drawn), in data set [5], the inhibition entry is “Active”.
